Reference: ChEMBL document CHEMBL1955766, “Structure guided development of novel thymidine mimetics targeting Pseudomonas aeruginosa thymidylate kinase: from hit to lead generation” (J Med Chem, 2012)
Values after ≈ are worked out from the molar mass of the structure shown.

System: Mycobacterium tuberculosis variant bovis
Assay: Antibacterial activity against Mycobacterium bovis
Assay type: functional

SMILES: Cc1cn([C@@H]2C[C@H](O)[C@@H](CNC(=S)Nc3ccc(Cl)c(Cl)c3)O2)c(=O)[nH]c1=O
- MIC: 25 µg/mL (≈ 56.1 µM)
